Values of other authors in patent publication US20030206884A1, “Embalming fluid” (AARD-BALM LIMITED, priority 2000, published 2003).

Test system: eyes, nose and throat

## C=O [formaldehyde]
  airborne concentration causing irritation of the eyes, nose and throat: above 0.1 ppm
  airborne concentration that is a danger to life and health: 100 ppm
